Measurements as given in the supplement of paper PMC10307832.

Key:
Test in all cases: relative viability (nuclei count vs DMSO), 5 days (fraction); higher = more cells survive
Tanzisertib + OSI-027 = compound: O[C@H]1CC[C@H](Nc2ncc3nc(Nc4c(F)cc(F)cc4F)n([C@H]4CCOC4)c3n2)CC1 [Tanzisertib] + COc1cccc2cc(-c3nc([C@H]4CC[C@H](C(=O)O)CC4)n4ncnc(N)c34)[nH]c12 [OSI-027] (partner 0.5 µM)
Method in brief: (§1)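 Lung cancer cell lines were seeded in 1536-well plates and dosed by pin tool the next day, with either a single drug or a fixed anchor-drug dose combined with five library-drug doses (not always all listed) spaced in √10 steps. Five days later, one step fixed the cells and stained their nuclei (final 0.05% Triton X-100, 1% formaldehyde, 1 ug/ml Hoechst), and nuclei were counted on 4× images. Relative viability is the nuclei count in treated wells divided by the count in vehicle wells, and each value is the median of duplicate plates.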

[1] = compound: C[C@@H](N)c1ccc(C(=O)Nc2ccnc3[nH]ccc23)cc1 + COc1cc2c(Oc3ccc(NC(=O)C4(C(=O)Nc5ccc(F)cc5)CC4)cc3F)ccnc2cc1OCCCN1CCOCC1 [Foretinib] (partner 0.25 µM)
Method in brief: as §1

[2] = compound: C1CNCCC1C2=CC(=NN2)C3=CC=NC=C3 + Nc1nc2[nH]cc(CCc3ccc(C(=O)N[C@@H](CCC(=O)O)C(=O)O)cc3)c2c(=O)[nH]1 [Pemetrexed] (partner 0.2 µM)
Method in brief: as §1

[3] = compound: C1CNCCC1C2=CC(=NN2)C3=CC=NC=C3 + CCNC(=O)c1noc(-c2cc(C(C)C)c(O)cc2O)c1-c1ccc(CN2CCOCC2)cc1 [Luminespib] (partner 0.01 µM)
Method in brief: as §1

Row | Cell Line | relative viability (Tanzisertib + OSI-027; first compound 0.08 µM) | relative viability (Tanzisertib + OSI-027; first compound 0.253 µM) | relative viability (Tanzisertib + OSI-027; first compound 0.8 µM) | relative viability (Tanzisertib + OSI-027; first compound 2.53 µM) | relative viability (Tanzisertib + OSI-027; first compound 8 µM) | relative viability ([1]; first compound 0.04 µM) | relative viability ([1]; first compound 0.1265 µM) | relative viability ([1]; first compound 0.4 µM) | relative viability ([1]; first compound 1.265 µM) | relative viability ([1]; first compound 4 µM) | relative viability ([2]; first compound 0.08 µM) | relative viability ([2]; first compound 0.8 µM) | relative viability ([2]; first compound 2.53 µM) | relative viability ([2]; first compound 8 µM) | relative viability ([3]; first compound 0.08 µM) | relative viability ([3]; first compound 0.8 µM) | relative viability ([3]; first compound 2.53 µM) | relative viability ([3]; first compound 8 µM)
1 | NCI-H2170 | 0.765 | 0.771 | 0.729 | 0.735 | 0.588 | 1.02 | 1 | 0.936 | 0.922 | 0.937 | 0.269 | 0.283 | 0.288 | 0.266 | 0.534 | 0.739 | 0.737 | 0.567
2 | HCC-366 | 0.968 | 0.888 | 0.942 | 0.977 | 0.051 | 0.987 | 0.926 | 0.936 | – | 1.07 | 0.212 | 0.193 | 0.146 | 0.173 | – | – | – | –
3 | NCI-H2347 | 0.447 | – | 0.46 | 0.42 | 0.407 | 1.17 | 0.964 | 1.22 | – | 1.32 | 0.441 | 0.409 | 0.422 | 0.422 | 0.366 | 0.5 | 0.511 | 0.564
4 | COR-L 105 | 0.663 | 0.686 | 0.682 | 0.631 | 0.444 | 0.755 | 0.939 | 1.03 | 0.865 | 0.761 | 1.19 | 1.19 | 1.12 | 1.06 | 0.688 | 0.648 | 0.921 | 0.962
5 | 201T | 0.632 | 0.854 | 0.673 | 0.713 | 0.501 | 1.1 | 1.04 | 1.25 | – | 1.31 | 0.349 | 0.384 | 0.332 | 0.352 | 1.03 | 1.04 | 1.13 | 1.01
6 | NCI-H2126 | 0.8 | 0.723 | 0.742 | 0.614 | 0.548 | 1.2 | 1.13 | 1.29 | – | 1.09 | 0.643 | 0.625 | 0.694 | 0.728 | 0.813 | 0.975 | 0.959 | 0.917
7 | LC-2-ad | 1.02 | 0.744 | 0.911 | 0.915 | 0.606 | 0.963 | 0.867 | 0.873 | – | 0.661 | 0.261 | 0.291 | 0.273 | 0.281 | – | 1.13 | 1.13 | 0.987
8 | NCI-H2085 | 0.937 | 0.666 | 0.804 | 0.705 | 0.515 | 1.03 | 0.989 | 0.918 | 0.901 | 0.79 | 1.1 | – | 0.96 | 0.969 | 0.412 | 0.38 | 0.498 | 0.435
9 | NCI-H358 | 0.817 | 0.637 | 0.661 | 0.655 | 0.501 | 0.675 | 0.688 | 0.651 | 0.662 | 0.566 | 0.181 | 0.176 | 0.178 | 0.157 | 0.478 | 0.279 | 0.369 | 0.388
10 | NCI-H1623 | 0.495 | 0.448 | 0.453 | 0.437 | 0.432 | 0.969 | 0.859 | 0.992 | 0.655 | 1.07 | – | – | – | – | 0.401 | 0.5 | 0.564 | 0.551
11 | ABC-1 | 0.471 | 0.469 | 0.469 | 0.511 | 0.461 | 1.25 | 1.12 | 1.34 | – | 0.993 | – | – | – | – | 0.517 | 0.69 | 1.02 | 0.663
12 | IA-LM | – | – | – | – | – | 1.28 | 1.33 | 1.43 | 1.2 | 1.08 | – | – | – | – | – | – | – | –
13 | NCI-H1792 | 0.752 | 0.716 | 0.728 | 0.676 | 0.446 | – | – | – | – | – | 0.909 | 0.73 | 0.831 | 0.849 | 0.43 | 0.414 | 0.636 | 0.483
14 | NCI-H1299 | – | – | – | – | – | 1.09 | 1.07 | 0.985 | 0.951 | 0.886 | – | – | – | – | – | – | – | –
15 | NCI-H727 | 0.618 | 0.564 | 0.643 | 0.483 | 0.647 | 1.07 | 1.07 | 1.36 | 1.26 | 1.24 | – | – | – | – | 0.27 | 0.693 | 0.453 | 0.36
16 | Calu-6 | – | – | – | – | – | 0.981 | 0.973 | 0.878 | 0.807 | 0.742 | – | – | – | – | – | – | – | –
17 | NCI-H1703 | – | – | – | – | – | 0.409 | 0.274 | 0.333 | – | 0.324 | – | – | – | – | – | – | – | –
18 | EBC-1 | – | – | – | – | – | 0.0976 | 0.0967 | 0.0934 | 0.0803 | 0.092 | – | – | – | – | – | – | – | –
19 | HCC-44 | 0.665 | 0.557 | 0.546 | 0.561 | 0.353 | – | – | – | – | – | 0.678 | 0.659 | 0.64 | 0.613 | 0.923 | 1.58 | 1.32 | 1.06
20 | NCI-H1648 | 0.275 | 0.245 | 0.239 | 0.319 | 0.223 | – | – | – | – | – | 0.671 | 0.57 | – | 0.828 | – | – | – | –
21 | NCI-H522 | 0.802 | 0.831 | 0.748 | 0.696 | 0.626 | – | – | – | – | – | 0.844 | 1.13 | 0.934 | 1.26 | 1.06 | 1.4 | 0.948 | 1.21
22 | A549 | – | – | – | – | – | 1.09 | 0.98 | 1.07 | 0.776 | 0.515 | – | – | – | – | – | – | – | –
23 | HCC-78 | 0.344 | 0.376 | 0.396 | 0.382 | 0.316 | 0.626 | 0.573 | 0.623 | 0.771 | 0.693 | 0.901 | – | 0.925 | 0.885 | – | – | – | –
